Data from patent US20080171716A1, “NUCLEIC ACID MODULATION OF TOLL-LIKE RECEPTOR-MEDIATED IMMUNE STIMULATION” (Protiva Biotherapeutics, Inc., priority 2006, published 2008).
m = 2'-O-methyl; r = 2'-OH (RNA)

Molecular target: T1, TLR9 (Homo sapiens, UniProt Q9NR96)
T1 construct: these experiments were repeated in human PBMC cultures; endogenous in cells; host or cells: primary human PBMCs
T1 sequence (Q9NR96 26-1032): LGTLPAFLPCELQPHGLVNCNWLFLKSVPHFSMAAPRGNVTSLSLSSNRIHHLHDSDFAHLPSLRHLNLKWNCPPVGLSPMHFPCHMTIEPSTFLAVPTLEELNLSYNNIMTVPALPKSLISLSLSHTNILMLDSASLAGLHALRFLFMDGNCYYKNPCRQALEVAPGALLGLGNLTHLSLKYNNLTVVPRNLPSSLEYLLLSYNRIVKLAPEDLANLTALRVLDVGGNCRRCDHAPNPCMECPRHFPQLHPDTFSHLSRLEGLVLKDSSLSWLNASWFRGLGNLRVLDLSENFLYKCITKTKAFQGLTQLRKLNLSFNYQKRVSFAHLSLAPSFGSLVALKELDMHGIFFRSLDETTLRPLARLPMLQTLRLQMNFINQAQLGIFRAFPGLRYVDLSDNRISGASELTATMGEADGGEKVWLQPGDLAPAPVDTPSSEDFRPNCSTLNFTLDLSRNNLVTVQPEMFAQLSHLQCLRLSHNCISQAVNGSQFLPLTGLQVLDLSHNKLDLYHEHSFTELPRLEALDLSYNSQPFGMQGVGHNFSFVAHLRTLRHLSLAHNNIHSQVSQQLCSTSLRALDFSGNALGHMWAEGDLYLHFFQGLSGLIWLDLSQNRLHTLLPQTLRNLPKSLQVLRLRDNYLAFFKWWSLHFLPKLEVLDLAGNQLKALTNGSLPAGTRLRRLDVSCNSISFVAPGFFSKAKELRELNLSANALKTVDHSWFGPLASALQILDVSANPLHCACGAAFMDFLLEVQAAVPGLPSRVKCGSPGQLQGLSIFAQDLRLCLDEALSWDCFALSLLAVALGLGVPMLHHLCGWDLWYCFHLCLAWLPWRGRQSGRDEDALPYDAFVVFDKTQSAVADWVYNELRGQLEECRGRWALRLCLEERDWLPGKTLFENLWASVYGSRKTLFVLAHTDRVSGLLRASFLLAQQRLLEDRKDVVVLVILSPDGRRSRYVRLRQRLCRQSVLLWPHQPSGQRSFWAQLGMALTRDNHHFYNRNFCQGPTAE
Assay: CpG ODN (TLR9 agonist)-induced cytokine production in human PBMCs
Format: cell-based
Experimental: All RNA molecules used in this study were heated at 90° C. for 3 min. and then placed at 37° C. for 60 min. Non-denaturing PAGE analysis on a 20% polyacrylamide gel was performed to confirm that ssRNA molecules were intact and that no duplexes had formed upon heating. The RNA molecules were encapsulated in a SNALP formulation comprising PEG-cDMA:DLinDMA:cholesterol:DSPC in a 2:40:48:10 mol % ratio (2:40 SNALP), prepared using a syringe press process.
Fresh human peripheral blood mononuclear cells (PBMCs) were isolated and seeded at about 3×10^5 cells/well in a total volume of 180 μl. Next, 20 μl of the appropriate SNALP diluted in PBS or 10 μl of naked TLR agonist were added to the PBMCs. For time course experiments, PBMCs were pretreated with UmodS ssRNA or a control and the appropriate naked TLR agonist was added at 0, 0.5, or 2 hours after pretreatment. When the SNALP and naked TLR agonist were added separately, the SNALP was added first followed by the naked TLR agonist. At t=24 hr., the cell supernatant was harvested and IFN-α and/or IL-6 levels were determined using ELISA.
Lipid Encapsulation of RNA and ODN. RNA or ODN were encapsulated in liposomes by a process of spontaneous vesicle formation as described in Judge et al., supra, and Jeffs et al., Pharm. […]
Cytokine ELISA. All cytokines were quantified using sandwich ELISA kits according to the manufacturer's instructions. […]

Luc UmodS: Luc sense strand ssRNA with 2′OMe at uridines: GAmUmUAmUGmUCCGGmUmUAmUGmUAUU (sense GAUUAUGUCCGGUUAUGUAUU; sugars from the 5' end rrmmrmrmrrrrmmrmrmrrr, backbone not given here)
IL-6 levels induced by naked ODN2006 (TLR9 agonist, phosphorothioate CpG Type B) (human PBMCs pretreated with SNALP-encapsulated ssRNA): no reduction | level of IFN-α induced by naked ODN2216 (TLR9 agonist, phosphorothioate CpG Type A) (human PBMCs, SNALP-encapsulated ssRNA plus naked ODN): increased
